Tests used:
Details in all cases: exposure time: 72 h
E21 [1] = patient-derived glioblastoma stem cells of mesenchymal subtype; assay: phenotypic distance (Euclidean, principal components) from DMSO controls (arbitrary units); higher = stronger morphological change
E34 [2] = patient-derived glioblastoma stem cells of proneural subtype; assay: as above
E13 [3] = patient-derived glioblastoma stem cells of classical subtype; assay: as above
E31 [4] = patient-derived glioblastoma stem cells of proneural subtype; assay: as above
E57 [5] = patient-derived glioblastoma stem cells of mesenchymal subtype; assay: as above
FT3469 [6] = normal neural stem cell line; assay: as above
E28 [7] = patient-derived glioblastoma stem cells of classical subtype; assay: as above
E21 [8] = assay: surviving fraction (nuclei count normalised to DMSO); higher = more cells surviving (less toxic)
E34 [9] = assay: as above
E13 [10] = assay: as above
E31 [11] = assay: as above
E57 [12] = assay: as above
FT3469 [13] = assay: as above
E28 [14] = assay: as above
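Throughout, for phenotypic distance (Euclidean, principal components) from DMSO controls: cell Painting imaging in 384-well plates, CellProfiler features reduced to at least 20 principal components, Euclidean distance versus same-plate DMSO vehicle wells (0.1% v/v), median over six images per well.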
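Throughout, for surviving fraction (nuclei count normalised to DMSO): nuclei counted by high-content imaging of Hoechst-stained cells in laminin-coated 384-well plates, relative to 0.1% DMSO vehicle wells, with staurosporine as cell-death control.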

COC(=O)C1=C(C)NC(C)=C(C(=O)OCC(C)C)C1c1ccccc1[N+](=O)[O-] (stereo unspecified) [Nisoldipine]
Details	phenotypic distance	surviving fraction
E13 [3], 4.1 nM	0.597	–
E13 [3], 12.3 nM	0.435	–
E13 [3], 37 nM	0.491	–
E13 [3], 111.1 nM	3.02	–
E13 [3], 333.3 nM	1.31	–
E13 [3], 1000 nM	1.21	–
E13 [3], 3000 nM	1.2	–
E13 [10], 4.1 nM	–	0.894
E13 [10], 12.3 nM	–	1.08
E13 [10], 37 nM	–	0.924
E13 [10], 111.1 nM	–	0.974
E13 [10], 333.3 nM	–	0.947
E13 [10], 1000 nM	–	0.946
E13 [10], 3000 nM	–	0.883
E21 [1], 4.1 nM	0.832	–
E21 [1], 12.3 nM	0.907	–
E21 [1], 37 nM	1.12	–
E21 [1], 111.1 nM	1.2	–
E21 [1], 333.3 nM	0.961	–
E21 [1], 1000 nM	0.669	–
E21 [1], 3000 nM	1.16	–
E21 [8], 4.1 nM	–	0.82
E21 [8], 12.3 nM	–	0.905
E21 [8], 37 nM	–	0.945
E21 [8], 111.1 nM	–	0.892
E21 [8], 333.3 nM	–	0.945
E21 [8], 1000 nM	–	0.942
E21 [8], 3000 nM	–	0.857
E28 [7], 4.1 nM	0.647	–
E28 [7], 12.3 nM	0.706	–
E28 [7], 37 nM	1.08	–
E28 [7], 111.1 nM	0.981	–
E28 [7], 333.3 nM	0.997	–
E28 [7], 1000 nM	0.908	–
E28 [7], 3000 nM	0.792	–
E28 [14], 4.1 nM	–	0.944
E28 [14], 12.3 nM	–	0.957
E28 [14], 37 nM	–	0.921
E28 [14], 111.1 nM	–	0.86
E28 [14], 333.3 nM	–	0.843
E28 [14], 1000 nM	–	0.972
E28 [14], 3000 nM	–	0.9
E31 [4], 4.1 nM	0.922	–
E31 [4], 12.3 nM	1.01	–
E31 [4], 37 nM	1.26	–
E31 [4], 111.1 nM	0.944	–
E31 [4], 333.3 nM	0.976	–
E31 [4], 1000 nM	1.03	–
E31 [4], 3000 nM	1.31	–
E31 [11], 4.1 nM	–	0.972
E31 [11], 12.3 nM	–	0.914
E31 [11], 37 nM	–	0.886
E31 [11], 111.1 nM	–	0.892
E31 [11], 333.3 nM	–	0.949
E31 [11], 1000 nM	–	0.996
E31 [11], 3000 nM	–	0.938
E34 [2], 4.1 nM	2	–
E34 [2], 12.3 nM	0.511	–
E34 [2], 37 nM	0.835	–
E34 [2], 111.1 nM	0.542	–
E34 [2], 333.3 nM	0.889	–
E34 [2], 1000 nM	0.614	–
E34 [2], 3000 nM	1.06	–
E34 [9], 4.1 nM	–	0.949
E34 [9], 12.3 nM	–	0.965
E34 [9], 37 nM	–	1.04
E34 [9], 111.1 nM	–	0.931
E34 [9], 333.3 nM	–	0.853
E34 [9], 1000 nM	–	0.959
E34 [9], 3000 nM	–	0.955
E57 [5], 4.1 nM	0.873	–
E57 [5], 12.3 nM	0.508	–
E57 [5], 37 nM	0.494	–
E57 [5], 111.1 nM	0.633	–
E57 [5], 333.3 nM	0.615	–
E57 [5], 1000 nM	0.552	–
E57 [5], 3000 nM	0.478	–
E57 [12], 4.1 nM	–	0.904
E57 [12], 12.3 nM	–	0.985
E57 [12], 37 nM	–	0.923
E57 [12], 111.1 nM	–	0.969
E57 [12], 333.3 nM	–	0.929
E57 [12], 1000 nM	–	1.07
E57 [12], 3000 nM	–	0.96
FT3469 [6], 4.1 nM	0.816	–
FT3469 [6], 12.3 nM	1.12	–
FT3469 [6], 37 nM	0.632	–
FT3469 [6], 111.1 nM	0.827	–
FT3469 [6], 333.3 nM	1.05	–
FT3469 [6], 1000 nM	1.4	–
FT3469 [6], 3000 nM	0.987	–
FT3469 [13], 4.1 nM	–	0.965
FT3469 [13], 12.3 nM	–	0.938
FT3469 [13], 37 nM	–	1.04
FT3469 [13], 111.1 nM	–	0.966
FT3469 [13], 333.3 nM	–	0.965
FT3469 [13], 1000 nM	–	0.942
FT3469 [13], 3000 nM	–	0.896

COc1cc2c[n+](C)c3c4cc5c(cc4ccc3c2cc1OC)OCO5 [Nitidine chloride]
Details	phenotypic distance	surviving fraction
E13 [3], 4.1 nM	0.679	–
E13 [3], 12.3 nM	2.36	–
E13 [3], 37 nM	0.78	–
E13 [3], 111.1 nM	0.431	–
E13 [3], 333.3 nM	1.36	–
E13 [3], 1000 nM	1.35	–
E13 [3], 3000 nM	4.56	–
E13 [10], 4.1 nM	–	1.02
E13 [10], 12.3 nM	–	0.937
E13 [10], 37 nM	–	1.01
E13 [10], 111.1 nM	–	1.01
E13 [10], 333.3 nM	–	0.836
E13 [10], 1000 nM	–	0.752
E13 [10], 3000 nM	–	0.397
E21 [1], 4.1 nM	0.786	–
E21 [1], 12.3 nM	0.739	–
E21 [1], 37 nM	1.02	–
E21 [1], 111.1 nM	1.99	–
E21 [1], 333.3 nM	3.87	–
E21 [1], 1000 nM	4.46	–
E21 [1], 3000 nM	5.64	–
E21 [8], 4.1 nM	–	0.997
E21 [8], 12.3 nM	–	0.869
E21 [8], 37 nM	–	0.959
E21 [8], 111.1 nM	–	0.703
E21 [8], 333.3 nM	–	0.302
E21 [8], 1000 nM	–	0.295
E21 [8], 3000 nM	–	0.066
E28 [7], 4.1 nM	0.661	–
E28 [7], 12.3 nM	0.746	–
E28 [7], 37 nM	1.02	–
E28 [7], 111.1 nM	1.34	–
E28 [7], 333.3 nM	2.74	–
E28 [7], 1000 nM	2.93	–
E28 [7], 3000 nM	3.24	–
E28 [14], 4.1 nM	–	0.955
E28 [14], 12.3 nM	–	0.92
E28 [14], 37 nM	–	0.878
E28 [14], 111.1 nM	–	0.754
E28 [14], 333.3 nM	–	0.506
E28 [14], 1000 nM	–	0.575
E28 [14], 3000 nM	–	0.216
E31 [4], 4.1 nM	0.468	–
E31 [4], 12.3 nM	0.762	–
E31 [4], 37 nM	0.828	–
E31 [4], 111.1 nM	1.43	–
E31 [4], 333.3 nM	1.85	–
E31 [4], 1000 nM	2.23	–
E31 [4], 3000 nM	3.9	–
E31 [11], 4.1 nM	–	0.905
E31 [11], 12.3 nM	–	1.08
E31 [11], 37 nM	–	0.804
E31 [11], 111.1 nM	–	0.738
E31 [11], 333.3 nM	–	0.582
E31 [11], 1000 nM	–	0.599
E31 [11], 3000 nM	–	0.19
E34 [2], 4.1 nM	0.655	–
E34 [2], 12.3 nM	0.652	–
E34 [2], 37 nM	0.901	–
E34 [2], 111.1 nM	1.63	–
E34 [2], 333.3 nM	1.88	–
E34 [2], 1000 nM	2.46	–
E34 [2], 3000 nM	3.01	–
E34 [9], 4.1 nM	–	1.08
E34 [9], 12.3 nM	–	1.06
E34 [9], 37 nM	–	0.769
E34 [9], 111.1 nM	–	1.08
E34 [9], 333.3 nM	–	0.743
E34 [9], 1000 nM	–	0.706
E34 [9], 3000 nM	–	0.559
E57 [5], 4.1 nM	0.377	–
E57 [5], 12.3 nM	0.436	–
E57 [5], 37 nM	0.309	–
E57 [5], 111.1 nM	0.645	–
E57 [5], 333.3 nM	1.22	–
E57 [5], 1000 nM	1.25	–
E57 [5], 3000 nM	7	–
E57 [12], 4.1 nM	–	0.996
E57 [12], 12.3 nM	–	0.919
E57 [12], 37 nM	–	0.965
E57 [12], 111.1 nM	–	0.946
E57 [12], 333.3 nM	–	0.91
E57 [12], 1000 nM	–	0.923
E57 [12], 3000 nM	–	0.216
FT3469 [6], 4.1 nM	0.874	–
FT3469 [6], 12.3 nM	0.863	–
FT3469 [6], 37 nM	0.732	–
FT3469 [6], 111.1 nM	1.27	–
FT3469 [6], 333.3 nM	2.17	–
FT3469 [6], 1000 nM	2.35	–
FT3469 [6], 3000 nM	2.82	–
FT3469 [13], 4.1 nM	–	0.854
FT3469 [13], 12.3 nM	–	0.86
FT3469 [13], 37 nM	–	0.854
FT3469 [13], 111.1 nM	–	0.752
FT3469 [13], 333.3 nM	–	0.679
FT3469 [13], 1000 nM	–	0.646
FT3469 [13], 3000 nM	–	0.601

Source: the supplement of paper PMC13207355
